Measured values taken from patent US7759399B2, “Pharmaceutical compositions” (priority 2002, dated 2010).

Experiments:
[1] = system: NF-κB; experiment: NF-κB-dependent luciferase reporter gene assay, HeLa κB-transformed cells, TPA stimulated; type: cell-based; conditions: Homo sapiens, HeLa, 8 h treatment, TPA 25 ng/ml 2 h after exposure, read-out: NF-κB, IC50 (concentration at which the compound halved the NF-κB activity)
Experimental: (§1) Method: HeLa cell clone 13B, stably transfected with a luciferase reporter plasmid controlled by the human hsp70 promoter, and HeLa κB-transformed cells, stably transfected with a luciferase reporter plasmid controlled by a synthetic NF-κB-STM construct, were maintained in DMEM medium supplemented with 10% FBS, L-glutamine (2 mM) and G418 (250 μg/ml) at 37° C. in a 5% CO2 humidified atmosphere.
(§2) Cells were seeded at a density of 4×10^4 cells/well in 96-well plates. After 18-20 h, the medium was removed and cells were treated for 8 h with the test compounds (100 μl) at the appropriate dilutions in serum-free medium. For the NF-κB-dependent reporter gene assay, cells were stimulated with TPA (25 ng/ml) 2 h after exposure to the compounds.
(§3) After incubation, the medium was removed and cells were lysed in 10 μl of lysis buffer. The luciferase activity was determined by adding 100 μl of substrate and measuring the release of light using a Victor 1420 microplate reader (Wallac, Finland).
The fragment Kpn I-BamH I from the pGL3 basic vector containing the luciferase gene (PROMEGA) was inserted in the pcDNA3 vector (INVITROGEN) digested with Bgl II-KpnI. (This digestion removes the CMV-promoter from pcDNA3.) The resulting new vector was digested with Kpn I-Hind III and a promoter containing a ‘5xNF-κB binding sites—TATA box’ sequence was inserted upstream of the luciferase gene. This vector has been named STM.
To obtain stable HeLa cell lines expressing the luciferase gene under the control of NF-κB, HeLa cells were transfected (using lipofectamine plus GIBCO) with the STM-Pvu I linearized vector, and selected for 20 days with G418 (800 μg/ml). After selection, the resistant HeLa cell pool was controlled (in quadruplicate samples) for luciferase activity after stimulation with TNFα, IL-1 and TPA.
(§4) The AC200/μM for HSF is the concentration at which the tested compound doubled the HSF activity in this assay. The IC50/μM for NF-κB is the concentration at which the tested compound halved the NF-κB activity in this assay.

[2] = system: HSF; experiment: HSF luciferase reporter assay, HeLa cell clone 13B (human hsp70 promoter); type: cell-based; conditions: 8 h, HeLa clone 13B, 8 h treatment, serum-free medium, read-out: HSF, AC200 (concentration at which the compound doubled the HSF activity)
Experimental: as §1, §2, §3, §4

[3] = system: uninfected 37RC cells; experiment: Toxicity to uninfected cells, determined visually by microscopy (TD100)
[4] = system: Sendai virus; experiment: Sendai virus replication in 37RC cells (virus yield by HAU titration); type: cell-based; conditions: Respirovirus muris, 5 HAU/10^5 cells, virus yield at 24 hours after infection, read-out: ID50 (50% inhibitory dose/concentration), Sendai virus yield
[5] = in vitro; type: cell-based; conditions: 37RC cells, 24 h treatment; read-out: LC50 (50% lethal dose/concentration), Neutral Red
Experimental: Cell viability was determined using the Neutral Red assay. 37RC cells were seeded at density of 6×10^4 cells/well in 24-well plates and incubated for 24 h. Confluent 37RC monolayers were treated with the test compounds at different dilutions for 24 h at 37° C. After incubation, the medium was removed and the cells were incubated with RPMI medium containing 40 μg/ml Neutral Red dye (500 μl/well). After 2 h at 37° C., the monolayers were washed with phosphate-buffered saline (PBS) and then with a solution containing 1% CaCl2 and 0.5% formaldehyde. After washing, a solution containing 1% acetic acid/50% ethanol was added to the monolayers (250 μl/well). After 10 min at room temperature, the absorbance was determined with a microplate reader (Victor 1420, Wallac) at 540 nm.

[6] = Alamar Blue cytotoxicity assay; type: cell-based; conditions: human
Experimental: HeLa cells were plated in 96-well microtiter plates in 100 μl culture medium (4×10^4/well). After 20 hours, the cells were exposed to the test compounds at different dilutions and incubated for the next 8 h at 37° C. in a 5% CO2 humidified atmosphere. After 6 h incubation, the Alamar Blue was added in an amount equal to 10% of the culture volume (10 μl). Two hours after the addition of the Alamar Blue, the fluorescence was measured using a Victor 1420 microplate reader.
The LC50/μM is the concentration at which the tested compound killed half the cells in this assay.

Row | SMILES | IC50 [1] [µM] | EC (2-fold) [2] [µM] | TD100 (dose or concentration at which the compound was 100% toxic to uninfected cells) [3] [µM] | IC50 [4] [µM] | CC50 at 24 h [5] [µM] | CC50 at 8 h [6] [µM]
1 | CC(C)(C)OC(=O)N[C@@H](CS[C@@H]1CC(=O)C(C)(C)C1OC(=O)C(C)(C)C)C(=O)O (stereo in doubt) [CTM-217, (2R)-2-tert-butoxycarbonylamino-3-[(1R,2S)-2-(2,2-dimethylpropionyloxy)-3,3-dimethyl-4-oxocyclopentylsulfanyl]-propionic acid] | 14 | 10 | – | – | – | –
2 | CC(C)(C)OC(=O)N[C@@H](CS[C@H]1CC(=O)C(C)(C)C1OC(=O)C(C)(C)C)C(=O)O (stereo in doubt) [CTM-218, (2R)-2-tert-butoxycarbonylamino-3-[(1S,2R)-2-(2,2-dimethylpropionyloxy)-3,3-dimethyl-4-oxocyclopentylsulfanyl]-propionic acid] | 22 | 15 | – | – | – | –
3 | CC(C)(C)[Si](C)(C)OC1C=CC(=O)C1 (centres unmarked) [CTC-8, 4-tert-butyldimethylsilyloxy-cyclopent-2-en-1-one, reference compound] | – | – | 100 | 0.5 | – | –
4 | COC(=O)[C@H](CS[C@H]1CC(=O)CC[C@@H]1O[Si](C)(C)C(C)(C)C)NC(=O)OC(C)(C)C [CTM-68, (R)-2-tert-Butoxycarbonylamino-3-[(1S,2S)-2-(tert-butyl-dimethyl-silanyloxy)-5-oxo-cyclohexylsulfanyl]-propionic acid methyl ester] | – | 98 | 9.8 | – | 9.8 | –
5 | COC(=O)C(CSC1CC(=O)CC(O[Si](C)(C)C(C)(C)C)C1)NC(=O)OC(C)(C)C (centres unmarked) [CTM-78, 2-tert-Butoxycarbonylamino-3-[3-(tert-butyl-dimethyl-silanyloxy)-5-oxo-cyclohexylsulfanyl]-propionic acid methyl ester] | – | 45 | 18.6 | – | 18.6 | –
6 | Cc1ccc(S[C@H]2CC(=O)C[C@@H]2O[Si](C)(C)C(C)(C)C)cc1 [CTM-80] | > 100 | 60 | 50 | 1 | 16 | > 800
7 | CC(=O)Nc1ccc(S[C@H]2CC(=O)C[C@@H]2O[Si](C)(C)C(C)(C)C)cc1 [CTM-81] | 31 | 28 | 50 | 1 | 17 | 181
8 | COC(=O)c1ccccc1S[C@H]1CC(=O)C[C@@H]1O[Si](C)(C)C(C)(C)C [CTM-82] | 54 | 35 | 50 | 1 | 16 | > 800
9 | CC(=O)NCCS[C@H]1CC(=O)C[C@@H]1O[Si](C)(C)C(C)(C)C [CTM-83] | 47 | 27 | 50 | 3 | 27 | > 800
10 | CC(C)(C)[Si](C)(C)O[C@H]1CC(=O)C[C@@H]1Sc1ncccn1 [CTM-84] | 28 | 28 | 10 | 1 | 6.3 | 556
11 | CC(C)(C)[Si](C)(C)O[C@H]1CC(=O)C[C@@H]1Sc1ccccn1 [CTM-86] | 36 | 20 | 10 | 2 | 7 | 96
12 | COC(=O)CS[C@H]1CC(=O)C[C@@H]1O[Si](C)(C)C(C)(C)C [CTM-87] | 52 | 48 | 50 | 4 | 38 | 260
13 | COC(=O)CCS[C@H]1CC(=O)C[C@@H]1O[Si](C)(C)C(C)(C)C [CTM-88] | 65 | 60 | 50 | 10 | 45 | 477
14 | CC(=O)N[C@@H](CS[C@H]1CC(=O)C[C@@H]1O[Si](C)(C)C(C)(C)C)C(=O)OC(C)(C)C [CTM-106] | > 100 | 26 | 50 | 4 | 28 | 536
15 | CC(C)(C)[Si](C)(C)O[C@H]1CC(=O)C[C@@H]1Sc1ccc([N+](=O)[O-])cc1 [CTM-107] | 47 | 21 | 10 | 0.3 | – | 169
16 | CC(C)(C)[Si](C)(C)O[C@H]1CC(=O)C[C@@H]1Sc1ccc(F)cc1 [CTM-108] | > 100 | 13 | 50 | 4 | 29 | > 800
17 | Cc1cc(C)n(CCS[C@H]2CC(=O)C[C@@H]2O[Si](C)(C)C(C)(C)C)n1 [CTM-109] | > 100 | 29 | 50 | 4 | 33 | 267
18 | CC(S[C@H]1CC(=O)C[C@@H]1O[Si](C)(C)C(C)(C)C)C(=O)NCC(=O)O (some centres unmarked) [CTM-110] | > 100 | 27 | 50 | 1 | 18 | > 800
19 | CC(=O)N[C@@H](CS[C@H]1CC(=O)C[C@@H]1O[Si](C)(C)C(C)(C)C)C(=O)O [CTM-115] | – | – | >500 | 50 | 228 | > 800
20 | CCOC(=O)[C@H](CS[C@H]1CC(=O)C[C@@H]1O[Si](C)(C)C(C)(C)C)NC(C)=O [CTM-131] | > 100 | 70 | 50 | 10 | 125 | > 800
21 | CC(C)(C)OC(=O)N[C@@H](CS[C@H]1CC(=O)C[C@@H]1O[Si](C)(C)C(C)(C)C)C(=O)O [CTM-145] | – | – | 50 | 0.8 | 14 | > 800
22 | C[C@@H](CS[C@H]1CC(=O)C[C@@H]1O[Si](C)(C)C(C)(C)C)C(=O)N1CCCC1C(=O)O (some centres unmarked) [CTM-182] | > 100 | 60 | 100 | 5 | 54 | –
23 | CC(C)(C)OC(=O)N[C@@H](CS[C@H]1CC(=O)C[C@@H]1O[Si](C)(C)C(C)(C)C)C(=O)OC(C)(C)C [CTM-183] | – | – | 50 | 1.6 | 28 | –
24 | CCOC(=O)[C@H](CS[C@H]1CC(=O)C[C@@H]1O[Si](C)(C)C(C)(C)C)NC(=O)OC(C)(C)C [CTM-184] | 61 | 24 | 50 | 1 | 25 | –
